ChEMBL document CHEMBL4004849, “Tetrazolylmethyl quinolines: Design, docking studies, synthesis, anticancer and antifungal analyses” (2017)
In brackets after ≈: the same amount, converted by molar mass.

What was measured:
Format in all cases: functional
HL-60(TB) = assay: Growth inhibition of human HL-60(TB) cells at 10^-5 M incubated for 48 hrs by sulforhodamine B assay relative to control; conditions: HL-60, 48 h, read-out: GI
K562 = assay: Growth inhibition of human K562 cells at 10^-5 M incubated for 48 hrs by sulforhodamine B assay relative to control; conditions: K562, 48 h, read-out: GI
MOLT-4 = assay: Growth inhibition of human MOLT4 cells at 10^-5 M incubated for 48 hrs by sulforhodamine B assay relative to control; conditions: MOLT-4, 48 h, read-out: GI
SR = assay: Growth inhibition of human SR cells at 10^-5 M incubated for 48 hrs by sulforhodamine B assay relative to control; conditions: read-out: GI
A549 = assay: Growth inhibition of human A549/ATCC cells at 10^-5 M incubated for 48 hrs by sulforhodamine B assay relative to control; conditions: A549, 48 h, read-out: GI
EKVX = assay: Growth inhibition of human EKVX cells at 10^-5 M incubated for 48 hrs by sulforhodamine B assay relative to control; conditions: read-out: GI
NCI-H226 = assay: Growth inhibition of human NCI-H226 cells at 10^-5 M incubated for 48 hrs by sulforhodamine B assay relative to control; conditions: NCI-H226, 48 h, read-out: GI
NCI-H23 = assay: Growth inhibition of human NCI-H23 cells at 10^-5 M incubated for 48 hrs by sulforhodamine B assay relative to control; conditions: NCI-H23, 48 h, read-out: GI
NCI-H460 = assay: Growth inhibition of human NCI-H460 cells at 10^-5 M incubated for 48 hrs by sulforhodamine B assay relative to control; conditions: NCI-H460, 48 h, read-out: GI
HCC 2998 = assay: Growth inhibition of human HCC2998 cells at 10^-5 M incubated for 48 hrs by sulforhodamine B assay relative to control; conditions: HCC 2998, 48 h, read-out: GI
HCT-116 = assay: Growth inhibition of human HCT116 cells at 10^-5 M incubated for 48 hrs by sulforhodamine B assay relative to control; conditions: HCT-116, 48 h, read-out: GI
SW-620 = assay: Growth inhibition of human SW620 cells at 10^-5 M incubated for 48 hrs by sulforhodamine B assay relative to control; conditions: SW-620, 48 h, read-out: GI
SF-268 = assay: Growth inhibition of human SF268 cells at 10^-5 M incubated for 48 hrs by sulforhodamine B assay relative to control; conditions: SF-268, 48 h, read-out: GI
SF-295 = assay: Growth inhibition of human SF295 cells at 10^-5 M incubated for 48 hrs by sulforhodamine B assay relative to control; conditions: SF-295, 48 h, read-out: GI
SF-539 = assay: Growth inhibition of human SF539 cells at 10^-5 M incubated for 48 hrs by sulforhodamine B assay relative to control; conditions: SF-539, 48 h, read-out: GI
SNB-19 = assay: Growth inhibition of human SNB19 cells at 10^-5 M incubated for 48 hrs by sulforhodamine B assay relative to control; conditions: SNB-19, 48 h, read-out: GI
SNB-75 = assay: Growth inhibition of human SNB75 cells at 10^-5 M incubated for 48 hrs by sulforhodamine B assay relative to control; conditions: SNB-75, 48 h, read-out: GI
U-251 = assay: Growth inhibition of human U251 cells at 10^-5 M incubated for 48 hrs by sulforhodamine B assay relative to control; conditions: U-251, 48 h, read-out: GI
LOX IMVI = assay: Growth inhibition of human LOXIMVI cells at 10^-5 M incubated for 48 hrs by sulforhodamine B assay relative to control; conditions: read-out: GI
Malme-3M = assay: Growth inhibition of human MALME-3M cells at 10^-5 M incubated for 48 hrs by sulforhodamine B assay relative to control; conditions: read-out: GI
M14 = assay: Growth inhibition of human M14 cells at 10^-5 M incubated for 48 hrs by sulforhodamine B assay relative to control; conditions: M14, 48 h, read-out: GI
MDA-MB-435 = assay: Growth inhibition of human MDA-MB-435 cells at 10^-5 M incubated for 48 hrs by sulforhodamine B assay relative to control; conditions: MDA-MB-435, 48 h, read-out: GI
SK-MEL-28 = assay: Growth inhibition of human SK-MEL-28 cells at 10^-5 M incubated for 48 hrs by sulforhodamine B assay relative to control; conditions: SK-MEL-28, 48 h, read-out: GI
UACC-257 = assay: Growth inhibition of human UACC257 cells at 10^-5 M incubated for 48 hrs by sulforhodamine B assay relative to control; conditions: UACC-257, 48 h, read-out: GI
UACC-62 = assay: Growth inhibition of human UACC62 cells at 10^-5 M incubated for 48 hrs by sulforhodamine B assay relative to control; conditions: UACC-62, 48 h, read-out: GI
IGROV-1 = assay: Growth inhibition of human IGROV1 cells at 10^-5 M incubated for 48 hrs by sulforhodamine B assay relative to control; conditions: IGROV-1, 48 h, read-out: GI
OVCAR-3 = assay: Growth inhibition of human OVCAR3 cells at 10^-5 M incubated for 48 hrs by sulforhodamine B assay relative to control; conditions: OVCAR-3, 48 h, read-out: GI
OVCAR-5 = assay: Growth inhibition of human OVCAR5 cells at 10^-5 M incubated for 48 hrs by sulforhodamine B assay relative to control; conditions: OVCAR-5, 48 h, read-out: GI
OVCAR-8 = assay: Growth inhibition of human OVCAR8 cells at 10^-5 M incubated for 48 hrs by sulforhodamine B assay relative to control; conditions: OVCAR-8, 48 h, read-out: GI
SK-OV-3 = assay: Growth inhibition of human SKOV3 cells at 10^-5 M incubated for 48 hrs by sulforhodamine B assay relative to control; conditions: SK-OV-3, 48 h, read-out: GI
786-0 = assay: Growth inhibition of human 786-0 cells at 10^-5 M incubated for 48 hrs by sulforhodamine B assay relative to control; conditions: 786-0, 48 h, read-out: GI
ACHN = assay: Growth inhibition of human ACHN cells at 10^-5 M incubated for 48 hrs by sulforhodamine B assay relative to control; conditions: read-out: GI
CAKI-1 = assay: Growth inhibition of human Caki1 cells at 10^-5 M incubated for 48 hrs by sulforhodamine B assay relative to control; conditions: CAKI-1, 48 h, read-out: GI
SN12C = assay: Growth inhibition of human SN12C cells at 10^-5 M incubated for 48 hrs by sulforhodamine B assay relative to control; conditions: read-out: GI
TK-10 = assay: Growth inhibition of human TK10 cells at 10^-5 M incubated for 48 hrs by sulforhodamine B assay relative to control; conditions: TK-10, 48 h, read-out: GI
UO-31 = assay: Growth inhibition of human UO31 cells at 10^-5 M incubated for 48 hrs by sulforhodamine B assay relative to control; conditions: UO-31, 48 h, read-out: GI
MDA-MB-231 = assay: Growth inhibition of human MDA-MB-231/ATCC cells at 10^-5 M incubated for 48 hrs by sulforhodamine B assay relative to control; conditions: MDA-MB-231, 48 h, read-out: GI
Hs-578T = assay: Growth inhibition of human Hs 578T cells at 10^-5 M incubated for 48 hrs by sulforhodamine B assay relative to control; conditions: read-out: GI
BT-549 = assay: Growth inhibition of human BT549 cells at 10^-5 M incubated for 48 hrs by sulforhodamine B assay relative to control; conditions: BT-549, 48 h, read-out: GI
T47D = assay: Growth inhibition of human T47D cells at 10^-5 M incubated for 48 hrs by sulforhodamine B assay relative to control; conditions: read-out: GI
MDA-MB-468 = assay: Growth inhibition of human MDA-MB-468 cells at 10^-5 M incubated for 48 hrs by sulforhodamine B assay relative to control; conditions: MDA-MB-468, 48 h, read-out: GI
Candida albicans [1] = assay: Antifungal activity against Candida albicans at 100 ug/ml by disc diffusion method; conditions: read-out: IZ
Candida albicans [2] = assay: Antifungal activity against Candida albicans after 24 hrs by serial dilution method
Aspergillus fumigatus [3] = assay: Antifungal activity against Aspergillus fumigatus at 100 ug/ml by disc diffusion method; conditions: read-out: IZ
Aspergillus fumigatus [4] = assay: Antifungal activity against Aspergillus fumigatus after 24 hrs by serial dilution method

Clc1nc2ccccc2cc1Cn1nnc(Cc2ccccc2)n1
inhibition of growth at 10 µM (HL-60(TB)): 12.1% | inhibition of growth at 10 µM (K562): 44.8% | inhibition of growth at 10 µM (MOLT-4): 56.9% | inhibition of growth at 10 µM (SR): 63% | inhibition of growth at 10 µM (A549): 46.1% | inhibition of growth at 10 µM (EKVX): 63.9% | inhibition of growth at 10 µM (NCI-H226): 41.8% | inhibition of growth at 10 µM (NCI-H23): 54.5% | inhibition of growth at 10 µM (NCI-H460): 25.7% | inhibition of growth at 10 µM (HCC 2998): 18.7% | inhibition of growth at 10 µM (HCT-116): 64.9% | inhibition of growth at 10 µM (SW-620): 13.4% | inhibition of growth at 10 µM (SF-268): 34.3% | inhibition of growth at 10 µM (SF-295): 52.4% | inhibition of growth at 10 µM (SF-539): 18.8% | inhibition of growth at 10 µM (SNB-19): 10.2% | inhibition of growth at 10 µM (SNB-75): 44.6% | inhibition of growth at 10 µM (U-251): 23.7% | inhibition of growth at 10 µM (LOX IMVI): 46.4% | inhibition of growth at 10 µM (Malme-3M): 34.4% | inhibition of growth at 10 µM (M14): 26.4% | inhibition of growth at 10 µM (MDA-MB-435): 34.7% | inhibition of growth at 10 µM (SK-MEL-28): 15.3% | inhibition of growth at 10 µM (UACC-257): 46.4% | inhibition of growth at 10 µM (UACC-62): 48.3% | inhibition of growth at 10 µM (IGROV-1): 49.1% | inhibition of growth at 10 µM (OVCAR-3): 40.5% | inhibition of growth at 10 µM (OVCAR-5): -4.25% | inhibition of growth at 10 µM (OVCAR-8): 28.4% | inhibition of growth at 10 µM (SK-OV-3): 42.6% | inhibition of growth at 10 µM (786-0): 27.1% | inhibition of growth at 10 µM (ACHN): 47.8% | inhibition of growth at 10 µM (CAKI-1): 59.5% | inhibition of growth at 10 µM (SN12C): 29.7% | inhibition of growth at 10 µM (TK-10): 39.1% | inhibition of growth at 10 µM (UO-31): 181% | inhibition of growth at 10 µM (MDA-MB-231): 47% | inhibition of growth at 10 µM (Hs-578T): 23.4% | inhibition of growth at 10 µM (BT-549): 61.1% | inhibition of growth at 10 µM (T47D): 73.9% | inhibition of growth at 10 µM (MDA-MB-468): 88.9% | zone of inhibition at 100 µg/mL (Candida albicans [1]): 10 mm | MIC (Candida albicans [2]): 25 µg/mL (≈ 74.4 µM) | zone of inhibition at 100 µg/mL (Aspergillus fumigatus [3]): 16 mm | MIC (Aspergillus fumigatus [4]): 50 µg/mL (≈ 149 µM)
